From ChEMBL document CHEMBL1201862, “PubChem BioAssay data set” (2004)
Values joined by “and” are separate entries in the source; they are usually repeats but may differ in a detail not shown here. Equal values may be shown once.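 Interpolation was linear, between the two tested concentrations surrounding the appropriate level; five concentrations were tested over 48 hours in 96-well plates. GI50: concentration for 50% inhibition of growth.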 Active and inactive are the calls of the source. Rule as the data show it: active = GI50 up to about 1.1 µM and inactive = higher.

How the values were obtained:
Test in all cases: inhibition of tumour cell growth, NCI panel, 48 h
MDA-MB-231 = test system: MDA-MB-231
A549 = test system: A549
U-251 = test system: U-251
HL-60 = test system: HL-60
SNB-19 = test system: SNB-19
CAKI-1 = test system: CAKI-1
SK-OV-3 = test system: SK-OV-3
SN12C = test system: SN12C
NCI-H226 = test system: NCI-H226
HT-29 = test system: HT-29
LOX IMVI = test system: LOX IMVI
SR = test system: SR
NCI/ADR-RES = test system: NCI/ADR-RES
MOLT-4 = test system: MOLT-4
MCF7 = test system: MCF7
K562 = test system: K562
MDA-MB-435 = test system: MDA-MB-435
HCT-15 = test system: HCT-15
UACC-62 = test system: UACC-62
SNB-75 = test system: SNB-75

Compound	GI50 (MDA-MB-231)	GI50 (A549)	GI50 (U-251)	GI50 (HL-60)	GI50 (SNB-19)	GI50 (CAKI-1)	GI50 (SK-OV-3)	GI50 (SN12C)	GI50 (NCI-H226)	GI50 (HT-29)	GI50 (LOX IMVI)	GI50 (SR)	GI50 (NCI/ADR-RES)	GI50 (MOLT-4)	GI50 (MCF7)	GI50 (K562)	GI50 (MDA-MB-435)	GI50 (HCT-15)	GI50 (UACC-62)	GI50 (SNB-75)
Cc1c(Cl)cccc1NC(=O)CC1Sc2ccccc2NC1=O (centres undefined)	14 µM (inactive)	19.8 µM (inactive) and 29.2 µM (inactive)	14.7 µM (inactive) and 17.3 µM (inactive)	12.3 µM (inactive) and 8.43 µM (inactive)	19.4 µM (inactive) and 20.1 µM (inactive)	36.3 µM (inactive) and 42.2 µM (inactive)	16.4 µM (inactive) and 19.3 µM (inactive)	25.1 µM (inactive) and 47.2 µM (inactive)	19.1 µM (inactive) and 17.9 µM (inactive)	13.9 µM (inactive)	24.8 µM (inactive) and 33.8 µM (inactive)	6.12 µM (inactive)	17 µM (inactive)	24.4 µM (inactive) and 26.5 µM (inactive)	11 µM (inactive)	6.59 µM (inactive) and 6.53 µM (inactive)	2.82 µM (inactive)			
CCCCC1=C(C(=O)N2CCOCC2)C2(OCCO2)C1Cl (centres undefined)	64 µM (inactive)	20.6 µM (inactive)	35.8 µM (inactive)	> 100 µM (inactive)	32.3 µM (inactive)	29.2 µM (inactive)	26 µM (inactive)	22.2 µM (inactive)	35.8 µM (inactive)	24.4 µM (inactive)	28.2 µM (inactive)		45.9 µM (inactive)	> 100 µM (inactive)	20 µM (inactive)		21.7 µM (inactive)	26.9 µM	31.6 µM (inactive)	30.2 µM (inactive)
Cc1ccc(C(=O)N/N=C(\N=N\c2ccccc2)c2ccc(N(C)C)cc2)cc1	> 100 µM (inactive)	> 100 µM (inactive)	> 100 µM (inactive)	> 100 µM (inactive)	80.4 µM (inactive)	44.5 µM (inactive)	> 100 µM (inactive)	> 100 µM (inactive)	> 100 µM (inactive)	> 100 µM (inactive)	> 100 µM (inactive)	35.5 µM (inactive)	> 100 µM (inactive)	> 100 µM (inactive)	48.8 µM (inactive)	52.2 µM (inactive)	24 µM (inactive)	> 100 µM	67.8 µM (inactive)	
CCOC(=O)c1c(N2CCOCC2)ncn(-c2cccc(Cl)c2)c1=O	> 100 µM (inactive)	> 100 µM (inactive)	> 100 µM (inactive)	> 100 µM (inactive)	> 100 µM (inactive)	> 100 µM (inactive)	> 100 µM (inactive)	> 100 µM (inactive)	> 100 µM (inactive)	> 100 µM (inactive)	> 100 µM (inactive)		> 100 µM (inactive)	> 100 µM (inactive)	> 100 µM (inactive)	> 100 µM (inactive)	> 100 µM (inactive)	> 100 µM	> 100 µM (inactive)	> 100 µM (inactive)
CC[C@@H]1C[C@@H](O)[C@@H]2[C@H](O)[C@H](O)CN2C1	> 100 µM (inactive)	> 100 µM (inactive)	> 100 µM (inactive)	> 100 µM (inactive)	> 100 µM (inactive)	> 100 µM (inactive)	> 100 µM (inactive)	> 100 µM (inactive)	> 100 µM (inactive)	> 100 µM (inactive)	> 100 µM (inactive)		> 100 µM (inactive)	> 100 µM (inactive)	> 100 µM (inactive)	> 100 µM (inactive)	> 100 µM (inactive)	> 100 µM	> 100 µM (inactive)	22.3 µM (inactive)
S=C(Nc1ccc(/N=N/c2ccccc2)cc1)SCc1ccccc1	14.7 µM (inactive)	16.9 µM (inactive)	16.2 µM (inactive)		18.5 µM (inactive)	16.5 µM (inactive)	38.8 µM (inactive)	15.7 µM (inactive)	18.9 µM (inactive)	23.6 µM (inactive)	18.7 µM (inactive)		17.8 µM (inactive)	12.1 µM (inactive)	23.3 µM (inactive)	19.5 µM (inactive)	16.2 µM (inactive)	15.1 µM	17.8 µM (inactive)	18.4 µM (inactive)
O=C(Nc1ccc(Cl)cc1Cl)c1cc2nc3ccccc3c(=O)n2c2ccccc12	> 10 µM (inactive)	> 10 µM (inactive)	> 10 µM (inactive)	> 10 µM (inactive)	> 10 µM (inactive)	> 10 µM (inactive)	> 10 µM (inactive)			> 10 µM (inactive)	> 10 µM (inactive)		> 10 µM (inactive)		> 10 µM (inactive)	> 10 µM (inactive)	> 10 µM (inactive)	> 10 µM	> 10 µM (inactive)	
NC(=S)NS(=O)(=O)c1ccc(F)cc1F	> 100 µM (inactive)	> 100 µM (inactive)	> 100 µM (inactive)	> 100 µM (inactive)	> 100 µM (inactive)	> 100 µM (inactive)	> 100 µM (inactive)	> 100 µM (inactive)	> 100 µM (inactive)	> 100 µM (inactive)	> 100 µM (inactive)		> 100 µM (inactive)	> 100 µM (inactive)	> 100 µM (inactive)	> 100 µM (inactive)	> 100 µM (inactive)	> 100 µM	> 100 µM (inactive)	> 100 µM (inactive)
CN1Cc2ccccc2/C=C\c2ccccc21	96.2 µM (inactive)	50.1 µM (inactive)	> 100 µM (inactive)		> 100 µM (inactive)	40.9 µM (inactive)	87.3 µM (inactive)	83.4 µM (inactive)	> 100 µM (inactive)	28.1 µM (inactive)	72.9 µM (inactive)		> 100 µM (inactive)		24.7 µM (inactive)		39.8 µM (inactive)	52.4 µM	60.8 µM (inactive)	65.6 µM (inactive)
CN1C(=O)CC2CCC(=O)N2c2cccnc21 (centres undefined)	> 100 µM (inactive)	> 100 µM (inactive)	> 100 µM (inactive)	> 100 µM (inactive)	> 100 µM (inactive)	> 100 µM (inactive)		> 100 µM (inactive)	> 100 µM (inactive)	> 100 µM (inactive)	> 100 µM (inactive)	> 100 µM (inactive)	> 100 µM (inactive)		> 100 µM (inactive)	> 100 µM (inactive)	> 100 µM (inactive)	> 100 µM	75.5 µM (inactive)	
CC(=O)C1C(=O)C(=O)N(c2cccc([N+](=O)[O-])c2)C1=O (centres undefined)	> 100 µM (inactive)	> 100 µM (inactive)	> 100 µM (inactive)	> 100 µM (inactive)	> 100 µM (inactive)	> 100 µM (inactive)	> 100 µM (inactive)	> 100 µM (inactive)	> 100 µM (inactive)	> 100 µM (inactive)	> 100 µM (inactive)		> 100 µM (inactive)	> 100 µM (inactive)	> 100 µM (inactive)		> 100 µM (inactive)	> 100 µM	> 100 µM (inactive)	> 100 µM (inactive)
O=c1cc(C(F)(F)F)c2cc3c(cc2o1)NCCC3	> 100 µM (inactive)	> 100 µM (inactive)	23.1 µM (inactive)	> 100 µM (inactive)	23 µM (inactive)	86.9 µM (inactive)		> 100 µM (inactive)	> 100 µM (inactive)	> 100 µM (inactive)	> 100 µM (inactive)	> 100 µM (inactive)	> 100 µM (inactive)	> 100 µM (inactive)	3.16 µM (inactive)	> 100 µM (inactive)	> 100 µM (inactive)	> 100 µM		
Cc1[nH]n(-c2ccc(S(=O)(=O)O)cc2)c(=O)c1/N=N/c1ccccc1	> 100 µM (inactive)	> 100 µM (inactive)	> 100 µM (inactive)		> 100 µM (inactive)	> 100 µM (inactive)	> 100 µM (inactive)	> 100 µM (inactive)		> 100 µM (inactive)	26.7 µM (inactive)	> 100 µM (inactive)	> 100 µM (inactive)	> 100 µM (inactive)	> 100 µM (inactive)	> 100 µM (inactive)	> 100 µM (inactive)	> 100 µM	95.1 µM (inactive)	> 100 µM (inactive)
CC(C)(C)OC(=O)Nc1nnc(S(N)(=O)=O)s1	> 100 µM (inactive)	> 100 µM (inactive)	> 100 µM (inactive)	> 100 µM (inactive)	> 100 µM (inactive)	> 100 µM (inactive)	> 100 µM (inactive)	> 100 µM (inactive)	> 100 µM (inactive)	> 100 µM (inactive)	> 100 µM (inactive)	> 100 µM (inactive)	> 100 µM (inactive)	> 100 µM (inactive)	> 100 µM (inactive)	> 100 µM (inactive)	> 100 µM (inactive)	> 100 µM	> 100 µM (inactive)	
O=C1c2ccccc2-c2oc(=O)c3ccccc3c21	> 100 µM (inactive)		> 100 µM (inactive)	> 100 µM (inactive)	> 100 µM (inactive)	> 100 µM (inactive)	> 100 µM (inactive)	> 100 µM (inactive)	> 100 µM (inactive)	> 100 µM (inactive)	> 100 µM (inactive)		> 100 µM (inactive)	> 100 µM (inactive)	> 100 µM (inactive)		> 100 µM (inactive)	> 100 µM	> 100 µM (inactive)	> 100 µM (inactive)
CC(=O)Oc1ccc(/C=C/C(=O)NCCOC(=O)/C=C/c2ccc(OC(C)=O)c(OC(C)=O)c2)cc1OC(C)=O	45.2 µM (inactive)	57.5 µM (inactive)	28.4 µM (inactive)		21.2 µM (inactive)	32.8 µM (inactive)	42 µM (inactive)	26.1 µM (inactive)		25.6 µM (inactive)	13.9 µM (inactive)	14.1 µM (inactive)	70.1 µM (inactive)	4.8 µM (inactive)	29.5 µM (inactive)	32.4 µM (inactive)	31.7 µM (inactive)	34.8 µM	18.7 µM (inactive)	20.1 µM (inactive)
